Laboratory results as given in patent publication US11839213B2, “Antimicrobial, disinfecting, and wound healing compositions and methods for producing and using the same” (Armis Biopharma, Inc., priority 2008, dated 2023).

Experiments:
C. difficile = assay: ASTM E2197-02 disk carrier test against C. difficile spores; format: cell-based; conditions: C. difficile spores with soil load on stainless steel disks, 10 minutes contact
Experimental: Pyruvic peracid (PPA) and Peroxy α-ketobutyric acid (POKBA) were tested against C. difficile using the ASTM E2197-02 testing method and the results are shown on FIG. 3. […] The method of testing these molecules against C. difficile was designed to evaluate the ability of liquid chemical germicides to inactivate vegetative bacteria, viruses, fungi, mycobacteria and bacterial spores in the presence of a soil load on disk carriers that represent environmental surfaces and medical devices.
This test method is a standard test promulgated by ASTM Committee E35 on Pesticides and Subcommittee E35.15 on Antimicrobial Agents. The stringency in the test is provided by the use of a soil load, the microtopography of the carrier surface and the small ratio of disinfectant to surface area (1:5) typical for many disinfectant applications. Thus the formulation under test is presented with a reasonable challenge while allowing for efficient recovery of the test organisms from the inoculated carriers with or without their exposure to the test formulation.
The metal disks used in the basic test are also compatible with a wide variety of germicidal actives and most surfaces in consumer based product manufacturing and health care facilities. The design of the metal discs makes it possible to place onto each precisely measured volume of the test organism (28 μL) as well as the test formulation (125 μL). […]

MRSA = assay: Spray test, log reduction of MRSA; format: cell-based; conditions: derived from 10% pyruvate and 3% H2O2; no growth in the broth, complete elimination assumed
From the text: A representative list of the organisms tested include, but are not limited to, Bacillus subtilis, Bacillus atrophaeus, Bacillus thuringiensis, Staphylococcus aureus, Salmonella cholerasuis, Pseudomonas aeruginosa, Aspergillus niger, and Trichophyton mentagrophytes. The following exemplifies one procedure derived from disinfectant test methods found in guidelines of the Association of Official Analytical Chemists (AOAC) to meet “log reduction criteria” established by the U.S. Environmental Protection Agency (EPA) and U.S. FDA for certain applications: (1) A tube of the sample-disinfectant is placed into a waterbath for temperature control and allowed to equilibrate; (2) Once the tube has reached temperature, it is inoculated to achieve a concentration of approximately 10^6 CFU/mL; (3) At selected time points (generally five points are used including zero) aliquots are removed and placed into a neutralizer blank; (4) Dilutions of the neutralizer are made and selected dilutions plated onto agar; (5) Colonies are enumerated and log reductions are calculated.
In order to obtain observable significant reductions (on the order of 106) of surface bacteria, a high number of viable CFU/in^2 must be available for treatment on the surface to be disinfected. […]
The effectiveness of treatments was evaluated by enumeration of the surviving bacteria on the slide. […]

| SMILES | activity against C. difficile (comparison, FIG. 3) (C. difficile) | log reduction of the MRSA control (MRSA) |
| --- | --- | --- |
| CCC(=O)C(=O)OO [POKBA, Peroxy-alpha-Ketobutyric Acid] | significantly more active compared to PPA | – |
| CC(=O)C(=O)OO [peroxy pyruvic acid] | – | approximately 6 logs |
